Measurements: patent US11572402B2, “Method for promoting diversification of antibody variable region” (Chiome Bioscience Inc., priority 2017, dated 2023)

Test system: BMAA4-2 cell line
Assay: Sequence change analysis of antibody variable regions according to NGS (NUS, SBL)
Type: cell-based, chicken
Conditions: BMAA4-2 cells, versus negative control sample
Method: A frozen stock of the BMAA4-2 cell line (3.0×10^6 cells) was awaken with 10 mL of CS(−) medium, using a 25 cm^2 Flask, and the cells were then cultured in a CO2 incubator (39.5° C., 5% CO2). On the following day, 2 mL each of a CS(−) medium, to which each drug had been added, was added into each well of a 12-well dish (Nunc, 150628), and the cells were then seeded thereon to a cell density of 6.0×10^4 cells/mL (wherein the cell concentration and the survival rate were measured using CASY cell counter). After individual samples had been cultured for 2 days, the samples were subcultured under the same conditions to result in a cell density of 1.0×10^4 cells/mL. After completion of the culture for 3 days, individual samples were subcultured in a 25 cm^2 Flask to result in a cell density of 6.0×10^4 cells/mL with respect to 10 mL of the medium under the same conditions. After completion of the culture for 2 days (Day 7 of the culture), individual samples (in each amount of 2.0×10^6 cells) were recovered in a 1.5-mL tube, and thereafter, a supernatant was removed by centrifugation at 1,000×g for 5 min. The residue was re-suspended in 1 mL of D-PBS(−) (Nacalai Tesque, 14249-24), and a supernatant was then removed by centrifugation at 1,000×g for 5 min. The residue was preserved at −80° C. Moreover, individual samples from the remaining cells were subcultured in a 12-well dish to result in a cell density of 6.0×10^4 cells/mL with respect to 2 mL of the medium under the same conditions. After completion of the culture for 2 days, individual samples were subcultured under the same conditions to result in a cell density of 1.0×10^4 cells/mL. After completion of the culture for 3 days, individual samples were subcultured in a 25 cm^2 Flask to result in a cell density of 6.0×10^4 cells/mL with respect to 10 mL of the medium under the same conditions. After completion of the culture for 2 days (Day 14 of the culture), individual samples (in each amount of 2.0×10^6 cells) were recovered in a 1.5-mL tube, and thereafter, a supernatant was removed by centrifugation at 1,000×g for 5 min. The residue was re-suspended in 1 mL of D-PBS(−), and a supernatant was then removed by centrifugation at 1,000×g for 5 min. The residue was preserved at −80° C.
A frozen stock of the BMAA4-2 cell line (3.0×10^6 cells) was awaken with 10 mL of CS(−) medium, using a 25 cm^2 Flask, and the cells were then cultured in a CO2 incubator (39.5° C., 5% CO2). On the following day, 1 mL each of a CS(−) medium, to which each drug had been added, was added into each well of a 24-well dish, and the cells were then seeded thereon to a cell density of 3.0×10^5 cells/mL (wherein the cell concentration and the survival rate were measured using CASY cell counter). […]

## Cc1nc(NC(=O)N2CCC[C@H]2C(N)=O)sc1-c1csc(C(C)(C)C)n1 [A66]
Heavy chain
  NUS (number of unique sequences), antibody heavy chain variable region amino acid sequences: higher values than the negative control sample
  SBL (sum of branch length), antibody heavy chain variable region amino acid sequences: higher values than the negative control sample
Light chain
  NUS (number of unique sequences), antibody light chain variable region amino acid sequences: higher values than the negative control sample
  SBL (sum of branch length), antibody light chain variable region amino acid sequences: higher values than the negative control sample
